According to patent US20080241263A1, “Oral and/or Topical Compositions Comprising Prebiotics and Sterols” (priority 2004, published 2008):

Key:
Bifidobacterium = experiment: Stimulation of growth: enumeration of bifidobacterium in vitro in human faecal homogenate / WC broth; format: cell-based, Bifidobacterium spp; conditions: incubated up to 24 hours
Experimental: (§1) The stimulation of growth of micro-organisms has been studied by enumerating bifidobacterium and lactobacilli in vitro in the presence of various test substances. More specifically, aliquots (1 mL) of human faecal homogenates (10 g per 100 mL diluent) were added to diluted WC broth (diluted 50:50 with 0.05M phosphate buffer) to which were added the test mixtures and a lactobacillus or bifidobacterium strain. For each of the combinations, parallel tubes were prepared with one set being inoculated with Bifidobacterium spp or Lactobacillus spp. All mixtures were then incubated for up to 24 hours and bacterial numbers enumerated.

Lactobacterium = experiment: Stimulation of growth: enumeration of lactobacilli in vitro in human faecal homogenate / WC broth; format: cell-based, Lactobacillus spp; conditions: incubated up to 24 hours
Experimental: as §1

Molecule	Bacterial numbers (CFU/ml) (Bifidobacterium; 1% test substance/mixture)	Bacterial numbers (CFU/ml) (Lactobacterium; 1% test substance/mixture)	Bacterial numbers (CFU/ml) (Bifidobacterium; 1% test substance)	Bacterial numbers (CFU/ml) (Lactobacterium; 1% test substance)
Lactolin [C3]	1.6 × 10^7 CFU/ml	1.5 × 10^6 CFU/ml	–	–
CC[C@H](CC[C@@H](C)[C@H]1CC[C@H]2[C@@H]3CC[C@H]4C[C@@H](O)CC[C@]4(C)[C@H]3CC[C@]12C)C(C)C [C6, β-Sitostanol]	–	–	2.4 × 10^6 CFU/ml	4.4 × 10^5 CFU/ml
CC[C@H](CC[C@@H](C)[C@H]1CC[C@H]2[C@@H]3CC=C4C[C@@H](O)CC[C@]4(C)[C@H]3CC[C@]12C)C(C)C [C5, β-Sitosterol]	–	–	3.3 × 10^6 CFU/ml	4.4 × 10^5 CFU/ml
OC[C@H]1O[C@@H](O[C@H]2[C@H](O)[C@@H](O)[C@@H](O[C@]3(CO)O[C@H](CO)[C@@H](O)[C@@H]3O)O[C@@H]2CO)[C@H](O)[C@@H](O)[C@H]1O [C2, Lactosucrose]	1.1 × 10^7 CFU/ml	1.1 × 10^6 CFU/ml	–	–
CCCCCCCCCCCCCCCCCC(=O)O[C@H]1CC[C@@]2(C)[C@@H](CC[C@@H]3[C@@H]2CC[C@]2(C)[C@@H]([C@H](C)CC[C@@H](CC)C(C)C)CC[C@@H]32)C1 [C8, β-Sitostanolstearate]	–	–	3.2 × 10^6 CFU/ml	4.5 × 10^5 CFU/ml
CCCCCCCCCCCCCCCC(=O)O[C@H]1CC[C@@]2(C)C(=CC[C@H]3[C@@H]4CC[C@H]([C@H](C)CC[C@@H](CC)C(C)C)[C@@]4(C)CC[C@@H]32)C1 [C7, β-Sitosterolpalmitate]	–	–	2.7 × 10^6 CFU/ml	4.4 × 10^5 CFU/ml
Betaglucan [C4]	1.2 × 10^7 CFU/ml	1.1 × 10^6 CFU/ml	–	–
